Data published in patent US9642833B2, “Vitamin C and vitamin K, and compositions thereof for treatment of osteolysis or prolongation of prosthetic implant” (IC-MEDTECH CORPORATION, priority 2009, dated 2017).

Tested on: HS68 fibroblasts
Assay: MTT cytotoxicity against human dermal fibroblasts
Type: cell-based
Conditions: for VK3 CD50: in combination with Sodium L-Ascorbate; for CD50: vitamins alone

## CC1=CC(=O)c2ccccc2C1=O [VK3, vitamin K3]
Ratio of vitamin C to vitamin K3 100, incubation 1 day
  VK3 CD50: 4.7 µM
Ratio of vitamin C to vitamin K3 100, incubation 2 days
  VK3 CD50: 4.7 µM
Ratio of vitamin C to vitamin K3 100, incubation 3 days
  VK3 CD50: 4.7 µM
Ratio of vitamin C to vitamin K3 200, incubation 1 day
  VK3 CD50: 2.3 µM
Ratio of vitamin C to vitamin K3 200, incubation 2 days
  VK3 CD50: 2.3 µM
Ratio of vitamin C to vitamin K3 200, incubation 3 days
  VK3 CD50: 2.0 µM
Incubation 1 day
  CD50: 18.7 µM
Incubation 2 days
  CD50: 19.0 µM
Incubation 3 days
  CD50: 18.7 µM

## O=C1O[C@H]([C@@H](O)CO)C([O-])=C1O.[Na+] [Sodium L-Ascorbate, sodium L-ascorbate]
In combination with VK3, ratio of vitamin C to vitamin K3 100, incubation 1 day
  VC CD50: 458 µM
In combination with VK3, ratio of vitamin C to vitamin K3 100, incubation 2 days
  VC CD50: 471 µM
In combination with VK3, ratio of vitamin C to vitamin K3 100, incubation 3 days
  VC CD50: 471 µM
In combination with VK3, ratio of vitamin C to vitamin K3 200, incubation 1 day
  VC CD50: 466 µM
In combination with VK3, ratio of vitamin C to vitamin K3 200, incubation 2 days
  VC CD50: 467 µM
In combination with VK3, ratio of vitamin C to vitamin K3 200, incubation 3 days
  VC CD50: 397 µM
Incubation 1 day
  CD50: 1468 µM
Incubation 2 days
  CD50: 1245 µM
Incubation 3 days
  CD50: 1185 µM
